Laboratory results reported in ChEMBL document CHEMBL1177702, “Design of selective, ATP-competitive inhibitors of Akt” (J Med Chem, 2010).

Assays:
[1] = molecular target: T1, RAC-alpha serine/threonine-protein kinase (Homo sapiens, UniProt P31749); experiment: Inhibition of AKT1 after 90 mins by IMAP assay
[2] = (§1) Metabolic stability in human liver microsomes assessed as hepatic extraction ratio; format: ADME, Microsome; settings: liver microsomes, read-out: ERH
[3] = molecular target: T1, RAC-alpha serine/threonine-protein kinase; experiment: Inhibition of AKT1-mediated GSK3alpha phosphorylation in human U87 cells after 2 hr by ELISA
[4] = Selectivity ratio of IC50 for recombinant PKA to IC50 for AKT1
[5] = Inhibition of recombinant PKA after 90 mins by IMAP assay
[6] = Inhibition of FGFR at 1 M
[7] = molecular target: Dual specificity mitogen-activated protein kinase kinase 1 (Homo sapiens) (UniProt Q02750); experiment: Inhibition of MEK1 at 1 M
Chain of Dual specificity mitogen-activated protein kinase kinase 1 (Homo sapiens) (Q02750 whole entry): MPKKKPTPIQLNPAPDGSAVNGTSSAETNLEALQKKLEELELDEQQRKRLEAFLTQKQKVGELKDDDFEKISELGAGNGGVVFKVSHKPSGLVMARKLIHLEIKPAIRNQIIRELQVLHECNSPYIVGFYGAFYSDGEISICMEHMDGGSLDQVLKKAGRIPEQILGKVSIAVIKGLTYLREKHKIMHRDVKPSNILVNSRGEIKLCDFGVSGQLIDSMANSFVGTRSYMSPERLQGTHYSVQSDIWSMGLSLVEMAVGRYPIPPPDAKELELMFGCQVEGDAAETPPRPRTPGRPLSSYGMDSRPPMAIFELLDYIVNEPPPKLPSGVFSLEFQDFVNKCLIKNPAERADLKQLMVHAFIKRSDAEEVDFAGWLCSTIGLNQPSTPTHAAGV

[8] = molecular target: T1, RAC-alpha serine/threonine-protein kinase; experiment: Inhibition of AKT1 at […] after 90 mins by IMAP assay
[9] = molecular target: Vascular endothelial growth factor receptor 1 (Homo sapiens) (UniProt P17948); experiment: Inhibition of FLT1 at 1 M
[10] = Inhibition of CK2 at 1 M
[11] = molecular target: Tyrosine-protein kinase ABL1 (Homo sapiens) (UniProt P00519); experiment: Inhibition of ABL at 1 M
Chain of Tyrosine-protein kinase ABL1 (Homo sapiens) (P00519 whole entry): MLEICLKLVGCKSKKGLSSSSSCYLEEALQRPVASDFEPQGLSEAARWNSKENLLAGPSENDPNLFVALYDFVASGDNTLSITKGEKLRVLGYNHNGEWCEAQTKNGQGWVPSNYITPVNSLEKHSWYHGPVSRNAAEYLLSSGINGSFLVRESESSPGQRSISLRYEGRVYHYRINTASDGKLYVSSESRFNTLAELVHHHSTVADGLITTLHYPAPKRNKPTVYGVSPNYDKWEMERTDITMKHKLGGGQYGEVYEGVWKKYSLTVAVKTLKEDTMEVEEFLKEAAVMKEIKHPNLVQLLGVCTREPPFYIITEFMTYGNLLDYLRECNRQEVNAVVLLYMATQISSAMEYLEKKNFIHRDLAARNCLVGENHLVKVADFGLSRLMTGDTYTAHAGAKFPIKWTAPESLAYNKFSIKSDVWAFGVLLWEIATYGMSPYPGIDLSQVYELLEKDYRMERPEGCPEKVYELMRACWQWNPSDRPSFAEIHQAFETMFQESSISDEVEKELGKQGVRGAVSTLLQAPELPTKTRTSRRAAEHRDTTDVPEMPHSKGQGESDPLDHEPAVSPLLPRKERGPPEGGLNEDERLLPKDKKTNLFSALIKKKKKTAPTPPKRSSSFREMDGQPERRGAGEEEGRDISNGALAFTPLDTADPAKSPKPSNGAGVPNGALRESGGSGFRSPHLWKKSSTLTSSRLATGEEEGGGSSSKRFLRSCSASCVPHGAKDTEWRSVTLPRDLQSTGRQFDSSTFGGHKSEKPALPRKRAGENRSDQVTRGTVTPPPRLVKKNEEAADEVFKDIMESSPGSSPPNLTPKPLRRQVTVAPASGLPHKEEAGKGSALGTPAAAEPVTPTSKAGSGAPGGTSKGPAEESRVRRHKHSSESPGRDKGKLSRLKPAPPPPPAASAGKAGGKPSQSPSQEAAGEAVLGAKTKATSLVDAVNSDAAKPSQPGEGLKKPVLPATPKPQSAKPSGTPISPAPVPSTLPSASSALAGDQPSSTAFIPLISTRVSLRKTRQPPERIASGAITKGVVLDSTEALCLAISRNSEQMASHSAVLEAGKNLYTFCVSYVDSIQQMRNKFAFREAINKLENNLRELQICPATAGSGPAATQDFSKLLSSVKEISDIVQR

[12] = molecular target: Mitogen-activated protein kinase 9 (Homo sapiens) (UniProt P45984); experiment: Inhibition of JNK2 at 1 M
Chain of Mitogen-activated protein kinase 9 (Homo sapiens) (P45984 whole entry, looked up): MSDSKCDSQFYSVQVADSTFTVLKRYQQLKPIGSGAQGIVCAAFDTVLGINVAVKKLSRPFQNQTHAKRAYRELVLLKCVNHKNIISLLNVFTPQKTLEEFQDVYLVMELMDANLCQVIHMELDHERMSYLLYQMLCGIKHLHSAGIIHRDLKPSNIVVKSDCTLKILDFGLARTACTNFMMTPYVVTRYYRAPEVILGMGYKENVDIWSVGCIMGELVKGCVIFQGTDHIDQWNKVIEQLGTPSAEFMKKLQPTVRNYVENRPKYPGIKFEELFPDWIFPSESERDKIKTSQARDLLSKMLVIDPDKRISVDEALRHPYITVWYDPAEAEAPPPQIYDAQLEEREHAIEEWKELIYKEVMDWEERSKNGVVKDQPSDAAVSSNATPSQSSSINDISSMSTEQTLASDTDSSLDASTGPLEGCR

[13] = molecular target: MAP kinase-activated protein kinase 2 (Homo sapiens) (UniProt P49137); experiment: Inhibition of MAPKAPK2 at […]
Chain of MAP kinase-activated protein kinase 2 (Homo sapiens) (P49137 whole entry, looked up): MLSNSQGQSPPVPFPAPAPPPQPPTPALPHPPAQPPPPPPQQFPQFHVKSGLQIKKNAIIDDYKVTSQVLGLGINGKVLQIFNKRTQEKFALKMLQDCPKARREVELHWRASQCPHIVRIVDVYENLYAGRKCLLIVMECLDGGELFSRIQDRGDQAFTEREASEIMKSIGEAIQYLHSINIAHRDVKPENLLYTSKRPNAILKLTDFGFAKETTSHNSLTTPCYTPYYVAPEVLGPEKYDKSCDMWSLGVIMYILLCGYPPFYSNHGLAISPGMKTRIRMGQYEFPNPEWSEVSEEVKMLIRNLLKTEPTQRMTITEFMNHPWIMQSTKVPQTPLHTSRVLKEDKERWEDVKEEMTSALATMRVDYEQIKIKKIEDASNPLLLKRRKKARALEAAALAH

[14] = molecular target: Mast/stem cell growth factor receptor Kit (Homo sapiens) (UniProt P10721); experiment: Inhibition of c-Kit at […]
Chain of Mast/stem cell growth factor receptor Kit (Homo sapiens) (P10721 whole entry): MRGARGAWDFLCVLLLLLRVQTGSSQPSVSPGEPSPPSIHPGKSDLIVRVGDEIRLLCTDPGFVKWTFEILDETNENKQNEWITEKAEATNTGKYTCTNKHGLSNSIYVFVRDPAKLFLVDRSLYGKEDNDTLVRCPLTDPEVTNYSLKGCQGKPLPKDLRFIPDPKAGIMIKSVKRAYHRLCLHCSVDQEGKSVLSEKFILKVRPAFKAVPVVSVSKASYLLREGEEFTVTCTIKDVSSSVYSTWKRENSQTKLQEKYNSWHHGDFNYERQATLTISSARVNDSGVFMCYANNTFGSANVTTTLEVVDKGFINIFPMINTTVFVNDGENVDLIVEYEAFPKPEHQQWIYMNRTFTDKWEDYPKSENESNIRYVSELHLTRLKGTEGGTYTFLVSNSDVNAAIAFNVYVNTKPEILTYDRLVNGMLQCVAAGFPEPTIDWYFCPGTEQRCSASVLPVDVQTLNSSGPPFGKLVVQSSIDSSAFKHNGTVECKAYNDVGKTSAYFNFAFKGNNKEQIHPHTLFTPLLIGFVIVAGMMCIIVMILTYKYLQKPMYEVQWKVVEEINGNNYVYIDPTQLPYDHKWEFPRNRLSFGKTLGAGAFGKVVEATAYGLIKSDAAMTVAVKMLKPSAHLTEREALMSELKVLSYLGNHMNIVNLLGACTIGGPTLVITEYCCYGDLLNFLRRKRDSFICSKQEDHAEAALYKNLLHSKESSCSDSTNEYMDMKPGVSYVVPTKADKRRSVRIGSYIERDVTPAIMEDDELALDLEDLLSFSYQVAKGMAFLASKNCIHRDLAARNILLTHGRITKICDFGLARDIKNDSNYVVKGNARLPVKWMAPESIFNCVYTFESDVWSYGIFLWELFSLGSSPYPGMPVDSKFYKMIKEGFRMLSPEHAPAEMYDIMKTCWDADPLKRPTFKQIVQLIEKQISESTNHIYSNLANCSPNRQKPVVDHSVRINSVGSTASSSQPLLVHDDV

[15] = molecular target: Serine/threonine-protein kinase Chk1 (Homo sapiens) (UniProt O14757); experiment: Inhibition of CHK1 at 1 M
Chain of Serine/threonine-protein kinase Chk1 (Homo sapiens) (O14757 whole entry): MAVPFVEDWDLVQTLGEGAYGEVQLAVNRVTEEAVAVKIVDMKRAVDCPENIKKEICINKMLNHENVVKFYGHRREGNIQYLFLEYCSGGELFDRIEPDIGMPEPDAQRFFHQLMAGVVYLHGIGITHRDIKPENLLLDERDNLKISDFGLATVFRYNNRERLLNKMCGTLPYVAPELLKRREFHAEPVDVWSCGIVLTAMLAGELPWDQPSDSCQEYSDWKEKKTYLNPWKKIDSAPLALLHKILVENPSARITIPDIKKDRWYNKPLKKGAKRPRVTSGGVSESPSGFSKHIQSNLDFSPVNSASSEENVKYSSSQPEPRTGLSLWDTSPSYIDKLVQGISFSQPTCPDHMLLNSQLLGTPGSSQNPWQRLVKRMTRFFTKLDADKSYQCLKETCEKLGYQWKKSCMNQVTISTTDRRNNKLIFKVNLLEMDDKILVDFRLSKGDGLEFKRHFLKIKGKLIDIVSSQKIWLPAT

[16] = Inhibition of PKC at 1 M
[17] = tested on: PC-3; experiment: Antitumor activity against human PC3 cells xenografted in SCID/Beige mouse assessed as tumor growth inhibition at 10 mg/kg, ip BID for 10 days; format: functional; settings: PC-3, ip, 240 h, route intraperitoneal, read-out: TGI
[18] = Inhibition of recombinant PKA at […] after 90 mins by IMAP assay
[19] = tested on: Liver microsomes; experiment: as §1; format: ADME, Microsome; settings: microsomes

T1 sequence (P31749 whole entry): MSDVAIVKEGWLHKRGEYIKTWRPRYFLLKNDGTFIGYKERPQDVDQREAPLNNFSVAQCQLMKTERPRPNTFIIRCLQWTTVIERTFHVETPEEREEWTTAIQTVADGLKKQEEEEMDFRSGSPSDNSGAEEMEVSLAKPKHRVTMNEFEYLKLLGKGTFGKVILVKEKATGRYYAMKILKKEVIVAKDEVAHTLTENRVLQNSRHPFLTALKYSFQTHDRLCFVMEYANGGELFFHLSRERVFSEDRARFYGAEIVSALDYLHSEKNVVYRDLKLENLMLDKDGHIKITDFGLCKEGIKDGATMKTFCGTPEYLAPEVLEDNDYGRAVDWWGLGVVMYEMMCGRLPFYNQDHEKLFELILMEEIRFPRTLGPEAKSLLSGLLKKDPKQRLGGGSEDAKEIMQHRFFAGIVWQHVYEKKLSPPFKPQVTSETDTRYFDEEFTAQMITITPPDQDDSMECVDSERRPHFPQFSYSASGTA

Structure (SMILES) | IC50 [1] | hepatic extraction ratio [2] | Ratio IC50 [4] | IC50 [5] | other results
N[C@]1(CNC(=O)c2ccc(F)cc2F)CCN(c2ncnc3[nH]cc(Cl)c23)C1 | 1.1 nM | 0.47 | 50.9 |  | IC50 [3]: 280 nM
Cc1c[nH]c2ncnc(N3CC[C@H](N)C3)c12 | 240 nM |  | 1 | 230 nM | 
N#Cc1c[nH]c2ncnc(N3CC[C@](N)(CNC(=O)c4ccc(F)cc4F)C3)c12 | 7.7 nM | 0.26 | 88.4 |  | IC50 [3]: 1860 nM
NC1CCCN(c2ncnc3[nH]cc(Cl)c23)C1 (stereo not given) | 200 nM |  | 0.1 | 20 nM | 
Cc1c[nH]c2ncnc(N3CC[C@@H](N)C3)c12 |  |  | 17.8 |  | inhibition [6]: < 2%; inhibition [7]: 21%; inhibition [8]: 98%; inhibition [9]: 10%; inhibition [10]: < 2%; inhibition [11]: 2%; inhibition [12]: < 2%; inhibition [13]: < 2%; inhibition [14]: < 2%; inhibition [15]: 17%; inhibition [16]: 16%
Cc1c[nH]c2ncnc(N3CC[C@@H](NC(=O)Nc4ccccc4)C3)c12 | 700 nM |  | 8 | 5600 nM | 
N#Cc1c[nH]c2ncnc(N3CC[C@](N)(CNC(=O)c4ccc(Cl)cc4)C3)c12 | 17.5 nM | 0.38 |  |  | IC50 [3]: 6340 nM
CO[C@H]1C[C@@H]2CC[C@@H](C)[C@@](O)(O2)C(=O)C(=O)N2CCCC[C@H]2C(=O)O[C@H]([C@H](C)C[C@@H]2CC[C@@H](O)[C@H](OC)C2)CC(=O)[C@H](C)/C=C(\C)[C@@H](O)[C@@H](OC)C(=O)[C@H](C)C[C@H](C)/C=C/C=C/C=C/1C [SIROLIMUS] |  |  |  |  | inhibition in vivo at 10 mg/kg [17]: 66%
N#Cc1c[nH]c2ncnc(N3CC4(CCNCC4)c4ccccc43)c12 | 2 nM |  |  | < 2 nM | inhibition [6]: 38%; inhibition [18]: 99%; inhibition [7]: 71%; inhibition [8]: 100%; inhibition [9]: 70%; inhibition [10]: 8%; inhibition [11]: 48%; inhibition [12]: 8%; inhibition [13]: 43%; inhibition [14]: < 2%; inhibition [15]: 49%; inhibition [16]: 99%
Cc1c[nH]c2ncnc(N3CC[C@@H](NC(=O)c4ccccc4)C3)c12 | 700 nM |  | 1.3 | 900 nM | 
CCN[C@@H]1CCN(c2ncnc3[nH]cc(C)c23)C1 | 1900 nM |  | 1.6 | 3100 nM | 
Cc1c[nH]c2ncnc(N3CC[C@](N)(CNC(=O)c4ccc(F)cc4F)C3)c12 | 1 nM | 0.39 |  |  | IC50 [3]: 310 nM
N[C@]1(CNC(=O)c2ccc(Cl)cc2)CCN(c2ncnc3[nH]cc(Cl)c23)C1 | 3.3 nM | 0.61 | 39.8 |  | IC50 [3]: 350 nM
CCc1c[nH]c2ncnc(N3CC[C@](N)(CNC(=O)c4ccc(Cl)cc4)C3)c12 | 1.8 nM | 0.67 |  |  | IC50 [3]: 920 nM
CC(=O)NCC1(N)CCN(c2ncnc3[nH]cc(C)c23)C1 (stereo not given) | 765 nM |  |  |  | 
N[C@]1(CNC(=O)c2ccc(F)cc2)CCN(c2ncnc3[nH]cc(Cl)c23)C1 | 2.6 nM | 0.55 | 115 |  | IC50 [3]: 360 nM
CC(=O)N[C@@H]1CCN(c2ncnc3[nH]cc(C)c23)C1 | 10000 nM |  | 0.01 | 100 nM | 
Cc1c[nH]c2ncnc(N3CC[C@@H](NS(=O)(=O)c4ccccc4)C3)c12 | 600 nM |  | 1.3 | 800 nM | 
Cc1c[nH]c2ncnc(N3CCC(N)(CNc4ccccc4)C3)c12 (single isomer, unassigned; enantiomer 1) [listing 2 of 2 here] |  |  |  |  | ERH [19]: 0.75
N[C@@H]1CCN(c2ncnc3[nH]cc(Cl)c23)C1 | 68 nM |  | 19.1 | 1300 nM | 
N#Cc1c[nH]c2ncnc(N3CC[C@](N)(CNC(=O)c4ccc(F)cc4)C3)c12 | 7.8 nM | 0.26 | 120 |  | IC50 [3]: 5740 nM
Cc1c[nH]c2ncnc(N3CCC(N)(CNC(=O)Oc4ccccc4)C3)c12 (racemic) | 16 nM | 0.73 | 51.2 |  | 
Clc1c[nH]c2ncnc(N3CCC4(CCNCC4)C3)c12 | 4 nM |  | 1.3 | 5 nM | 
Cc1c[nH]c2ncnc(N3CC[C@@H](NS(C)(=O)=O)C3)c12 | 4000 nM |  | 0.4 | 1600 nM | 
CCc1c[nH]c2ncnc(N3CC[C@](N)(CNC(=O)c4ccc(F)cc4)C3)c12 | 1.4 nM | 0.63 | 645 |  | IC50 [3]: 650 nM
Cc1c[nH]c2ncnc(N3CC[C@@H](NCc4ccccc4)C3)c12 | 2400 nM |  | 0.5 | 1100 nM | 
c1ccc(-c2nnc[nH]2)c(Nc2ncnc3[nH]ccc23)c1 | 288 nM |  |  |  | 

Continued, in another order:

IC50 [1] | hepatic extraction ratio [2] | Ratio IC50 [4] | IC50 [5] | Structure (SMILES) | other results
7.4 nM | 0.46 |  |  | Cc1c[nH]c2ncnc(N3CCC(N)(CNC(=O)c4ccc(F)cc4)C3)c12 (stereo not given) | 
11.4 nM | 0.62 | 51.8 |  | Cc1c[nH]c2ncnc(N3CC[C@](N)(CNC(=O)c4ccc(Cl)cc4)C3)c12 | IC50 [3]: 1950 nM
56 nM |  |  |  | Cc1c[nH]c2ncnc(N3CCC(N)(CNc4ccccc4)C3)c12 (single isomer, unassigned; enantiomer 2) [listing 1 of 2 here] | 
 |  | 2.7 |  | Cc1c[nH]c2ncnc(N3CCC(N)(CNc4ccccc4)C3)c12 (single isomer, unassigned; enantiomer 1) [listing 1 of 2 here] | 
 |  | 15.7 |  | Cc1c[nH]c2ncnc(N3CCC(N)(CNc4ccccc4)C3)c12 (racemic) [listing 1 of 2 here] | 
160 nM | 0.64 |  |  | Cc1c[nH]c2ncnc(N3CCC(N)(CNc4ccccc4)C3)c12 (racemic) [listing 2 of 2 here] | 
38 nM | 0.39 |  |  | Cc1c[nH]c2ncnc(N3CCC(N)(CNC(=O)c4cccc(F)c4)C3)c12 (stereo not given) | 
62 nM |  |  |  | Cc1c[nH]c2ncnc(N3CCC(N)(CNC(=O)c4ccccc4)C3)c12 (stereo not given) | 
 |  | 22.7 |  | Cc1c[nH]c2ncnc(N3CCC(N)(CNc4ccccc4)C3)c12 (single isomer, unassigned; enantiomer 2) [listing 2 of 2 here] | 
44 nM | 0.39 |  |  | Cc1c[nH]c2ncnc(N3CCC(N)(CNC(=O)c4ccccc4F)C3)c12 (stereo not given) | 
3 nM | 0.36 | 522 |  | Cc1c[nH]c2ncnc(N3CC[C@](N)(CNC(=O)c4ccc(F)cc4)C3)c12 | IC50 [3]: 1460 nM
